The record followed here is ChEMBL document CHEMBL1201862, “PubChem BioAssay data set” (2004).

The structures appear in SMILES notation. “And” between values parts separate entries of the source, which are not always exact repeats. Identical values can stand only once. Counter-ions that a name gives are not always drawn. The source made the active and inactive calls.

One assay concerns Streptococcus. Put plainly: GAS UMAA2166 growth inhibition – luminescence, BacTiterGlo, counter-screen for streptokinase expression inhibitor project, dose response (AID 1915).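 Also: potency for reduction of bacterial viability or growth.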 In kind it is functional, organism-based. In general terms: A counterscreen serves to expose hits that act by an unwanted route or on another target.
The target in the next assay is CAAX prenyl protease 1 (Saccharomyces cerevisiae S288c, UniProt P47154). Description: yeast CAAX protease Ste24 inhibition – biochemical, S. cerevisiae, plate reader, cherry-pick, dose response (AID 488815).
For a further assay, the target named is Exodeoxyribonuclease V (Escherichia coli (strain K12), UniProt P04993+P07648+P08394). Description: RecBCD inhibition via phage-restricted bacterial growth – absorbance, V66 E. coli, mutant T4 phage, counter-screen for AddAB inhibitor project, dose response (AID 492957). In kind it is functional, cell-based, Escherichia coli str. K-12 substr. MG1655.
Exodeoxyribonuclease V, sequence (P04993 whole entry): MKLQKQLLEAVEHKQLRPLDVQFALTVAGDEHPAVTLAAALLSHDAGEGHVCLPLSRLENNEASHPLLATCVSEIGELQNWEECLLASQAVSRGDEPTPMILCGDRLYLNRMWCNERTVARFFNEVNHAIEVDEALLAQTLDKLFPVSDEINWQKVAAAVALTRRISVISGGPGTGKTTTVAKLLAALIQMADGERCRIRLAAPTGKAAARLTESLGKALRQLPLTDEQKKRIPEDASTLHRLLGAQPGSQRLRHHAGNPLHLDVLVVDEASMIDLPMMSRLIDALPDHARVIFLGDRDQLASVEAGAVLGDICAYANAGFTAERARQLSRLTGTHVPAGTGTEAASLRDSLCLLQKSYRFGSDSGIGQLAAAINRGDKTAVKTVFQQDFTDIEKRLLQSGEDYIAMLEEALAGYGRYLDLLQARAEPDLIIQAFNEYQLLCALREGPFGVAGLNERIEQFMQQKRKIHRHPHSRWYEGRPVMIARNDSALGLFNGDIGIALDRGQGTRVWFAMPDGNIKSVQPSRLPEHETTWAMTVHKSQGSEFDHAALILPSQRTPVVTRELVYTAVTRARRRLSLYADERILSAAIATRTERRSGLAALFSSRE
Exodeoxyribonuclease V, sequence (P07648 whole entry): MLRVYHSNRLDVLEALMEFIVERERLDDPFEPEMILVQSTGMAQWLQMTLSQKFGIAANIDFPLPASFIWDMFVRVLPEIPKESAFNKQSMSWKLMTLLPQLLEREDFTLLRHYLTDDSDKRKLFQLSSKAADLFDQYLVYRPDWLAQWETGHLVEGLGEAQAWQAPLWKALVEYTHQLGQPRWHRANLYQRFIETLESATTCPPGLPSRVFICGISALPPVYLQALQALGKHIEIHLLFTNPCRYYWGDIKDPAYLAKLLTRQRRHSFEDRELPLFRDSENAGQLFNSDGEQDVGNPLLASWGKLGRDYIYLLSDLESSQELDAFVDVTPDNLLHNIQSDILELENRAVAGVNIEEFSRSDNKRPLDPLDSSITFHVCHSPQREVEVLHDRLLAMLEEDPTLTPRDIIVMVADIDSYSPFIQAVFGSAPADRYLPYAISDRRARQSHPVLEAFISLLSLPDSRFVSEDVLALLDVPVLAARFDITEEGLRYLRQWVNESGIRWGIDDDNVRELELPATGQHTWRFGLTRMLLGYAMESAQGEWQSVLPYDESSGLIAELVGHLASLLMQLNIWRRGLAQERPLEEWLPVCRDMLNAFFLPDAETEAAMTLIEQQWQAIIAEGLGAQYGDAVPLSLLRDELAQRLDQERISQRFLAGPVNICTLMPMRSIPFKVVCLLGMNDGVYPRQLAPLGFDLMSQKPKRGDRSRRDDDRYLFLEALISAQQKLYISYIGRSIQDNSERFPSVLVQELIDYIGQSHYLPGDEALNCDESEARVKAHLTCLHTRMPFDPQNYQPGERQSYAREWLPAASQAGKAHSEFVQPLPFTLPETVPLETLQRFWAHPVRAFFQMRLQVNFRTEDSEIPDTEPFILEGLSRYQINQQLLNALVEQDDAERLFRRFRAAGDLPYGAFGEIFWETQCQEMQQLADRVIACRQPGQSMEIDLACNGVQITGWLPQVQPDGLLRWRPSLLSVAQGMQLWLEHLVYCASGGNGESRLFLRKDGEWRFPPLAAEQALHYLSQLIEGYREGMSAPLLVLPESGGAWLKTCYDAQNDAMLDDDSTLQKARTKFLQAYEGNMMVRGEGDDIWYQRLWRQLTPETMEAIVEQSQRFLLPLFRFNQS
Exodeoxyribonuclease V, sequence (P08394 whole entry): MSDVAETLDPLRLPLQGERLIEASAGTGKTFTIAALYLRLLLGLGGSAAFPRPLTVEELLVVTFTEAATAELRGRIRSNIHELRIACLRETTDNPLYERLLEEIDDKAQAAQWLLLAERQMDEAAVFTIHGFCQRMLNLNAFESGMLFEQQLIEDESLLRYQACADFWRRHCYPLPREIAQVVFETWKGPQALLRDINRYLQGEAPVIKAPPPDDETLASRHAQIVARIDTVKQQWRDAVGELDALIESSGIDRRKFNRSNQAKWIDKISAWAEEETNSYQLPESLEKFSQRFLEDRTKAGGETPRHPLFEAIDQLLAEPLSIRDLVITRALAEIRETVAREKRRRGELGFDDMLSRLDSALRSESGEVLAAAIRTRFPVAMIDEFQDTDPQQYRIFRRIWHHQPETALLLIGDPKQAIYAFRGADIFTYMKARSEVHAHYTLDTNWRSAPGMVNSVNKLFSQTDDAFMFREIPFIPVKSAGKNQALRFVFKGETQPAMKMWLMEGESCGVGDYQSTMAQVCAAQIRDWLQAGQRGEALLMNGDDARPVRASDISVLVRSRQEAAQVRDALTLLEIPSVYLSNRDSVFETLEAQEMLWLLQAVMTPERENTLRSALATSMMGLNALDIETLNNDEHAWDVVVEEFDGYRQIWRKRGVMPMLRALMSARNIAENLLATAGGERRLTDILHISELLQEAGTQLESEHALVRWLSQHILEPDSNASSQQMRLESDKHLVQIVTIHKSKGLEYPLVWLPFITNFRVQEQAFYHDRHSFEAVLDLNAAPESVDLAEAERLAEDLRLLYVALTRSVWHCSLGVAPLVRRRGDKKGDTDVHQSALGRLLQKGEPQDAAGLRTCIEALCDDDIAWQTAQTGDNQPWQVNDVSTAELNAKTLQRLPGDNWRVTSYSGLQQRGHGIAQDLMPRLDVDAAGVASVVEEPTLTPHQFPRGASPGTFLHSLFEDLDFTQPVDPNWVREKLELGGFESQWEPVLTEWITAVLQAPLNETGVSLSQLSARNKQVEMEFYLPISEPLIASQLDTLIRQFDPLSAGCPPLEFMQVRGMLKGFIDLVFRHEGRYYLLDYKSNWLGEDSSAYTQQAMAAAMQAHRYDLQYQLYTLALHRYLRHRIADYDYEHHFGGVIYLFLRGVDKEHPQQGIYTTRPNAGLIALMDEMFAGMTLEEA
Assay [1] can be described thus: viability loss in HeLa cells – cytotoxicity control for MgcRacGAP inhibitor project, dose response (AID 624300). It counts as functional.
In assay [2] the target is ALK tyrosine kinase receptor (Homo sapiens, UniProt Q9UM73). It counts as functional.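 Also: ALK tested as one member of a kinase panel screen.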
Assay [3] has as its target Serine/threonine-protein kinase PLK4 (Homo sapiens, UniProt O00444). In kind it is functional.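 Also: PLK4 measured as one member of a kinome-wide kinase profiling panel.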
Assay [4] concerns the target Tyrosine-protein kinase Lck (Homo sapiens, UniProt P06239). It counts as functional.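 Also: lck was assayed as one member of a kinase panel.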
The target in assay [5] is Serine/threonine-protein kinase PAK 4 (Homo sapiens, UniProt O96013). In kind it is functional.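 Also: value obtained within a kinome profiling panel in which PAK4 was one of the panel members.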
The target of assay [6] is Serine/threonine-protein kinase pim-3 (Homo sapiens, UniProt Q86V86). It counts as functional.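 Also: value obtained as one member of a broad kinase panel profiling effort.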
The target in assay [7] is Tyrosine-protein kinase Srms (Homo sapiens, UniProt Q9H3Y6). It counts as functional.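 Also: SRMS measured as one member of a kinome-wide kinase profiling panel.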
Tyrosine-protein kinase Srms, sequence (Q9H3Y6 whole entry): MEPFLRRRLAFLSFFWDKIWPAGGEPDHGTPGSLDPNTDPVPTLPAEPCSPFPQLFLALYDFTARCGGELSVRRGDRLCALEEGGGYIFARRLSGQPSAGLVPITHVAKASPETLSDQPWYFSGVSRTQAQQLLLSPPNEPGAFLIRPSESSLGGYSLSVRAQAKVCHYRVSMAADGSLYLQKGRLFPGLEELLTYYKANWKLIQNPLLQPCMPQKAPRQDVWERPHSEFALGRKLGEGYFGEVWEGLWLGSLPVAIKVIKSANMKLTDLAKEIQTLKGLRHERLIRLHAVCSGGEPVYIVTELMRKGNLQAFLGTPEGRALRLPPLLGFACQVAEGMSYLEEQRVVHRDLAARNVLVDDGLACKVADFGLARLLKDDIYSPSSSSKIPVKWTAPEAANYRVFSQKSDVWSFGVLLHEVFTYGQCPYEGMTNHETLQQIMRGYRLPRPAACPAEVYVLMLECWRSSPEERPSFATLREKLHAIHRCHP
In assay [8] the target is Dual specificity tyrosine-phosphorylation-regulated kinase 3 (Homo sapiens, UniProt O43781). It counts as functional.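 Also: measured as one member of a broad kinase panel.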
Assay [9] has as its target Vascular endothelial growth factor receptor 2 (Homo sapiens, UniProt P35968). In kind it is functional.
Assay [10] addresses Dual specificity tyrosine-phosphorylation-regulated kinase 4 (Homo sapiens, UniProt Q9NR20). In kind it is functional.
In the next assay the target is Focal adhesion kinase 1 (Homo sapiens, UniProt Q05397). It counts as functional.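 Also: measured as one member of a kinome panel.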
The target in assay [11] is Homeodomain-interacting protein kinase 4 (Homo sapiens, UniProt Q8NE63). In kind it is functional.
In assay [12] the target is Vascular endothelial growth factor receptor 1 (Homo sapiens, UniProt P17948). It counts as functional.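 Also: measured within a kinome-wide profiling panel, FLT1 as the panel member.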
For assay [13], the target named is Glycogen synthase kinase-3 beta (Homo sapiens, UniProt P49841). In kind it is functional.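 Also: value comes from a broad kinome profiling panel, with GSK3B as the panel member.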
Glycogen synthase kinase-3 beta, sequence (P49841 whole entry): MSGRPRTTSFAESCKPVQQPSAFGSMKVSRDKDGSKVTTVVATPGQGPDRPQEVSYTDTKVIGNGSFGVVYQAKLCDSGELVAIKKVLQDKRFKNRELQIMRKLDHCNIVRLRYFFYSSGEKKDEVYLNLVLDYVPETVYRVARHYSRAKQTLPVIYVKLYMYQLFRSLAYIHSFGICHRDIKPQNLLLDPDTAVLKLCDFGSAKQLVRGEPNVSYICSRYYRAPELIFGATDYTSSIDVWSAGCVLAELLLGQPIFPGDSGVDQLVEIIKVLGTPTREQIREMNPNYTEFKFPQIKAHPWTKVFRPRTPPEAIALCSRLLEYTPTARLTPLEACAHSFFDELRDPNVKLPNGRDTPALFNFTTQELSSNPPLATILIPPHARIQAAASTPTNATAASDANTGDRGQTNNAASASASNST
Assay [14] has as its target Dual specificity protein kinase CLK4 (Homo sapiens, UniProt Q9HAZ1). It counts as functional.
Assay [15] concerns the target Serine/threonine-protein kinase MRCK alpha (Homo sapiens, UniProt Q5VT25). It counts as functional.
The target in assay [16] is Macrophage colony-stimulating factor 1 receptor (Homo sapiens, UniProt P07333). In kind it is functional.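 Also: value comes from the Navigating the Kinome screening panel, CSF1R member.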
Macrophage colony-stimulating factor 1 receptor, sequence (P07333 whole entry): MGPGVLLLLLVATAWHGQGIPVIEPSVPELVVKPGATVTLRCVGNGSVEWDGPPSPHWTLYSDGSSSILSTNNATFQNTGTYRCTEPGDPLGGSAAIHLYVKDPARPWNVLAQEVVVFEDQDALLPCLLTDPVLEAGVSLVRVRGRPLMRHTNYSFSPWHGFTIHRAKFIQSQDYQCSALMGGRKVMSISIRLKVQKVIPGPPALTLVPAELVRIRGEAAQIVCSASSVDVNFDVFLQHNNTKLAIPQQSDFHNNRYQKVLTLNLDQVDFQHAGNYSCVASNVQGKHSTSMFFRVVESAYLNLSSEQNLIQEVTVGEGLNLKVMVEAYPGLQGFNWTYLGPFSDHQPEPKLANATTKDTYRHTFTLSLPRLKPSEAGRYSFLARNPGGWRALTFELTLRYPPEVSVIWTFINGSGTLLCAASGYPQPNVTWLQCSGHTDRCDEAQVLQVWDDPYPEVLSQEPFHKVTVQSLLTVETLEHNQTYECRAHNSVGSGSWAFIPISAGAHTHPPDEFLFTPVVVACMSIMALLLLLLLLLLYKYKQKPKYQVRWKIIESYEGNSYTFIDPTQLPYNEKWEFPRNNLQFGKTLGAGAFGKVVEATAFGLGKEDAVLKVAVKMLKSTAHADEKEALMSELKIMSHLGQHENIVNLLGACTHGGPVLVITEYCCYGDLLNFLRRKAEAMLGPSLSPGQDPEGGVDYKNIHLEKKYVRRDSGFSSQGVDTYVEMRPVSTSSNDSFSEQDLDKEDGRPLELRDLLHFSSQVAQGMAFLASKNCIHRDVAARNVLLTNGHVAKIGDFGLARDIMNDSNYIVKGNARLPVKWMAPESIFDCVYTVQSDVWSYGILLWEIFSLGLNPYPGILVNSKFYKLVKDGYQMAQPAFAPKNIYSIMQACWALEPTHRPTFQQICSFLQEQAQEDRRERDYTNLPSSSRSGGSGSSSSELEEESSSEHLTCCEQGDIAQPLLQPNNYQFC
In assay [17] the target is Serine/threonine-protein kinase BRSK1 (Homo sapiens, UniProt Q8TDC3). It counts as functional.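 Also: measured within a kinome-wide kinase panel, with the target listed as KIAA1811.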
Assay [18] has as its target T1, RNA-binding protein pos-1 (Caenorhabditis elegans, UniProt G5EF15).
T1 sequence (G5EF15 whole entry): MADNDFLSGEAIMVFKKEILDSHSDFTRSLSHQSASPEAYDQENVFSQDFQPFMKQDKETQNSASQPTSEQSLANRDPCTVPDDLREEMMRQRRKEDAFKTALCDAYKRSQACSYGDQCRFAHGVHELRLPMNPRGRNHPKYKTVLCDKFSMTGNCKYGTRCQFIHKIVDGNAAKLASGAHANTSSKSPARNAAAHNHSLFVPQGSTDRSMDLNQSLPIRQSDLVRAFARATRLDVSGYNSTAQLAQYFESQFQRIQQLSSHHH
Description: disruptors of C. elegans POS-1 RNA interaction – biochemical, fluorescence polarization, dose response (AID 1964).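 Also: purified POS-1 fused to maltose binding protein made in E. coli; potency of compounds blocking POS-1 binding to fluorescent RNA.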 For orientation: Polarisation of emitted light reports the rotation of a fluorescent probe.

Assay [19] deals with Polyadenylate-binding protein 1 (Homo sapiens, UniProt P11940). Description: MLLE binding blockers, Cy5 peptide tracer – biochemical, fluorescence polarization, Cy5-PAM2 peptide, secondary, miRNA deadenylation inhibitor project, dose response (AID 602260). To be noted: read-out: IC50_Mean. In kind it is functional.
The target in a further assay is T2, Cytochrome P450 1A2 (Homo sapiens, UniProt P05177).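 Also: PubChem cytochrome P450 panel assay, CYP1A2 panel member.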
T2 sequence (P05177 whole entry): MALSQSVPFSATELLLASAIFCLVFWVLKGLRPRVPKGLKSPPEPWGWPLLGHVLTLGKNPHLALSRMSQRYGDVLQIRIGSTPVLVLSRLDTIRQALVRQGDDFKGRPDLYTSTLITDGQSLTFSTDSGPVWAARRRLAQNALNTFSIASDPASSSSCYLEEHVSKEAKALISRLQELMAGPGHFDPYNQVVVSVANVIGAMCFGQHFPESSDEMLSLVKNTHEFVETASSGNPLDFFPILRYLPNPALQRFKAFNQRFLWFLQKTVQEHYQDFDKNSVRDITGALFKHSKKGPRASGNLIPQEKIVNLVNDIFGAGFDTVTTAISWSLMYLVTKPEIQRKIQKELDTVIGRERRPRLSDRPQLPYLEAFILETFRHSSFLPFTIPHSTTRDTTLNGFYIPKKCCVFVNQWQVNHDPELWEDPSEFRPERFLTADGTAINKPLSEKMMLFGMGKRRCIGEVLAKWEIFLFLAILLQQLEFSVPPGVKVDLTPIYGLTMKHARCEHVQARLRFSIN

The term EC50 denotes the concentration giving half of the maximal effect. As usually defined, the AC50 is the midpoint of the concentration-response curve, whichever way the signal moves. What is called CC50 is the concentration that lowers cell viability or growth by half. Usually Ki stands for the dissociation constant of the complex between target and ligand, obtained from inhibition or displacement.

For `CCCCCCCCCCOC(=O)C[n+]1c(COc2ccc(C)cc2)n(C)c2ccccc21`, in the assay on Streptococcus, the EC50 is 7.92 µM (active). Besides, the AC50 on CAAX prenyl protease 1 was 7.21 µM (active).
`CCN1/C(=C\c2ccc3ccccc3[n+]2CC)Sc2cc(C)ccc21`: on Exodeoxyribonuclease V, the IC50 is 72.8 µM (inactive). Also, the CC50 in assay [1] is 14.4 µM (active).
On to `CN1CCN(c2nc(C3=C(c4c[nH]c5ccccc45)C(=O)NC3=O)c3ccccc3n2)CC1` [SOTRASTAURIN], for which the Ki is > 1.58 µM (inactive) in assay [2]; > 3.98 µM (inactive) in [3]; > 3.98 µM (inactive) in [4]; > 5.01 µM (inactive) in assay [5]; 0.316 µM (active) in assay [6]; > 1.58 µM (inactive) in assay [7]. Moreover, the Ki in assay [8] is 6.31 µM (active); in assay [9] it was 0.398 µM (active); in [10] it was > 7.94 µM (inactive); at Focal adhesion kinase 1 it was > 6.31 µM (inactive); in assay [11], > 7.94 µM (inactive); in [12], > 2 µM (inactive). Besides, the Ki in assay [13] was 0.2 µM (active); in assay [14] it was > 5.01 µM (inactive); in assay [15], > 10 µM (inactive); in assay [16], > 2.51 µM (inactive); in assay [17], 2.51 µM (active).
With `CC[C@@H](CO)NC(=O)[C@@H]1C=C2c3cccc4c3c(cn4C)C[C@H]2N(C)C1` [METHYSERGIDE MALEATE], the 50% effective concentration (EC50) in [18] is 10.3 µM (active) and 14.3 µM (active). In assay [19], the IC50 is > 66 µM (inactive).
Take `CCC(C)n1c(NC(=O)c2ccccc2)c(C#N)c2nc3ccccc3nc21` (centres undefined): the AC50 at Cytochrome P450 1A2 was 25.1 µM (inconclusive).
